Results published in ChEMBL document CHEMBL3872220, “Amphiphilic xanthones as a potent chemical entity of anti-mycobacterial agents with membrane-targeting properties” (Eur J Med Chem, 2016).
≈ marks a conversion by molar mass, not a printed value.

Experiments:
Assay type in all cases: functional
[1] = tested on: Mycobacterium tuberculosis; test: Antimycobacterial activity against rifampicin, streptomycin and ethambutol resistant Mycobacterium tuberculosis clinical isolate 01;005 assessed as reduction in 2 log10 bacterial colonies measured after 14 to 21 days by agar dilution method
[2] = tested on: Mycobacterium tuberculosis; test: Antimycobacterial activity against isoniazid, streptomycin and ethambutol resistant Mycobacterium tuberculosis clinical isolate 01;104 assessed as reduction in 2 log10 bacterial colonies measured after 14 to 21 days by agar dilution method
[3] = tested on: Mycobacterium tuberculosis variant bovis BCG; test: Bactericidal activity against Mycobacterium bovis BCG ATCC 35734 assessed as log reduction in bacterial colonies at 2 times MIC measured at 9 hrs by time-kill assay

SMILES: COc1c(OCCCCN2CCOCC2)cc2oc3cc(OCCCCN4CCOCC4)c(CC=C(C)C)c(O)c3c(=O)c2c1CC=C(C)C
- MIC [1]: 8 µg/mL (≈ 11.5 µM)
- MIC [2]: 4 µg/mL (≈ 5.77 µM)

SMILES: CCCN(CCC)CCCCOc1cc2oc3cc(OCCCCN(CCC)CCC)c(OC)c(CC=C(C)C)c3c(=O)c2c(O)c1CC=C(C)C
- Activity [3]: 2.8

SMILES: CCN(CC)CCCCOc1cc2oc3cc(OCCCCN(CC)CC)c(OC)c(CC=C(C)C)c3c(=O)c2c(O)c1CC=C(C)C
- MIC [1]: 8 µg/mL (≈ 12 µM)
- MIC [2]: 4 µg/mL (≈ 6.02 µM)
